How the values were obtained:
PDE1 = experiment: Selectivity: inhibition of PDE1 (radioenzymatic assay); assay type: biochemical, bovine; details: Table 2
Description: (§1) 2.1.1. Isolation of Phosphodiesterases from Smooth Muscle A 3 g segment of bovine aortic media cut into pieces with scissors was homogenized with an ultra-turrax then a potter glass/glass homogenizer in 7 volumes by weight of buffer A containing a protease inhibitor cocktail (20 mM Tris-HCl, 0.25 M saccharose, 2 mM magnesium acetate, 1 mM dithiothreitol, 5 mM EGTA, 2000 U/ml aprotinin, 10 mg/l leupeptin and 10 mg/l soya trypsic inhibitor). The homogenizate was centrifuged at 105,000 g for 1 hour. The supernatant was loaded on a DEAE-Sephacel column (15×1.6 cm) pre-equilibrated with buffer B (buffer A without the saccharose, EGTA and protease inhibitors). The column was washed until there was no detectable absorption at 280 nm, then eluted with a linear gradient of NaCl (0-0.5 M) in buffer B. 3-ml fractions were collected and enzyme activity was determined under the conditions described hereinbelow to localize the different enzymes PDE1, PDE3, PDE4 and PDE5 which were aliquoted and frozen at −80° C. (Lugnier et al., Biochem. Phamacol., 1986, 35: 1746-1751). […]
(§2) Cyclic nucleotide phosphodiesterase activity was determined by a radioenzymatic method using tritium-labelled cyclic GMP or AMP (1 μM) as substrate (Lugnier et al., 1986). ^3H-labelled adenosine or guanosine monophosphate formed by hydrolysis of the radiolabelled cyclic nucleotide was then converted to ^3H-labelled adenosine or guanosine in a second reaction with one nucleotidase in excess. […] Nucleoside radioactivity was determined by liquid scintillation counting. […]
(§3) The activity of the compounds was evaluated on other phosphodiesterase isoforms, particularly basal state or calmodulin-activated PDE1 from vascular smooth muscle, PDE3, PDE4 and PDE5 from vascular smooth muscle. The results obtained are presented in Tables 1 and 2 hereinbelow and are expressed as the percentage inhibition of enzymatic activity produced by […] of the test compound.

sigma 2 receptors = biological target: T1, sigma 2 receptors (Rattus norvegicus, UniProt Q5U3Y7); experiment: Sigma 2 receptor binding ([3H]DTG + (+)pentazocine); details: [3H]DTG 5 nM + 300 nM (+)pentazocine, rat cerebral cortex, read-out: σ2 percentage inhibition at 10 μM
T1 construct: The sigma 2 receptors were isolated from rat cerebral cortex; from tissue; host or cells: rat cerebral cortex
T1 sequence (Q5U3Y7 1-176): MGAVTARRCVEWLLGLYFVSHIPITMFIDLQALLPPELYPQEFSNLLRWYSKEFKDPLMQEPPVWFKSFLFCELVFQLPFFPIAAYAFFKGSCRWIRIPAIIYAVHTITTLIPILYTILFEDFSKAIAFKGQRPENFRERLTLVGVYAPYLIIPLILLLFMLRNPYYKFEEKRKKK
Description: The sigma 1 receptors were isolated from guinea pig cerebral cortex according to the method described in Bowen et al., 1993.
Sigma 1 receptor binding was determined by a radioligand method using tritium-labelled (+)pentazocine (2 nM) as substrate (Bowen et al., 1993). Sigma 2 receptor binding was determined by a radioligand method using tritium-labelled DTG (+300 nM (+)pentazocine) (5 nM) as substrate (Bowen et al., 1993). Ligand radioactivity was determined by liquid scintillation counting. For sigma 1 binding evaluation, ligand incubations were carried out for one hundred fifty minutes at 22° C. For sigma 2 binding evaluation, ligand incubations were carried out for one hundred twenty minutes at 22° C. The experiments were conducted in duplicate.
The specific ligand binding to the sigma receptors was defined as the difference between the total binding and the non specific binding determined in presence of an excess of unlabelled ligand. The results obtained are presented in Table 4 hereinbelow and are expressed as percent of control specific binding and as a percent inhibition of control specific binding obtained in presence of 10 μM of substance.

σ receptors = experiment: Isolated organ bioassay, field-stimulated vas deferens: test for antagonist activity; design: species or system guinea pig; details: mean, n=2
Description: Segments of guinea pig vas deferens were suspended in 20-ml organ baths containing an oxygenated (95% O2 and 5% CO2) and pre-warmed (37° C.) physiological salt solution of the following composition (in mM): NaCl 118.0, KCl 4.7, MgSO4 1.2, CaCl2 2.5, KH2PO4 1.2, NaHCO3 25.0 and glucose 11.0 (pH 7.4). Yohimbine (1 μM), (−) sulpiride (1 μM), atropine (1 μM) and naloxone (1 μM) were also present throughout the experiments to block the α2-adrenergic, dopamine D2, muscarinic and opioid receptors, respectively. The tissues were connected to force transducers for isometric tension recordings. They were stretched to a resting tension of 0.5 g, allowed to equilibrate for at least 30 min during which time they were washed repeatedly and the tension readjusted. Thereafter, they were stimulated electrically using a constant current stimulator.
The tissues were exposed to a submaximal concentration of the reference agonist (+) SKF-10047 (100 μM) to obtain a control response. After stabilization of the (+) SKF-10047-induced response, increasing concentrations of substance or the reference antagonist rimcazole were added cumulatively. Each concentration was left in contact with the tissues until a stable response was obtained or for a maximum of 15 min. If it occurred, an inhibition of the (+) SKF-10047-induced increase in twitch contraction amplitude by substance indicated an antagonist activity at the σ receptors.
The parameter measured was the maximum change in the twitch contraction amplitude induced by each compound concentration. The results are expressed as a percent variation of the control twitch contraction amplitude (mean values). The effects of substance tested at 1.0 10^−6 M, 3.0 10^−6 M and 1.0 10^−5 M for agonist and antagonist activities at the σ receptors in the guinea pig vas deferens bioassay are summarized in Tables 6-7 where those of the reference compounds are also reported.

PDE5 = biological target: T2, PDE5 (Bos taurus, UniProt Q28156); experiment: Selectivity: inhibition of PDE5 (radioenzymatic assay); assay type: biochemical, bovine; details: Table 2
T2 construct: PDE3, PDE4 and PDE5 from vascular smooth muscle; from tissue; host or cells: bovine aortic media (vascular smooth muscle), DEAE-Sephacel fraction
Description: as §1, §2, §3

PDE4 = experiment: Selectivity: inhibition of PDE4 (radioenzymatic assay); assay type: biochemical, bovine; details: Table 2
Description: 2.1.1. Isolation of Phosphodiesterases from Smooth Muscle A 3 g segment of bovine aortic media cut into pieces with scissors was homogenized with an ultra-turrax then a potter glass/glass homogenizer in 7 volumes by weight of buffer A containing a protease inhibitor cocktail (20 mM Tris-HCl, 0.25 M saccharose, 2 mM magnesium acetate, 1 mM dithiothreitol, 5 mM EGTA, 2000 U/ml aprotinin, 10 mg/l leupeptin and 10 mg/l soya trypsic inhibitor). The homogenizate was centrifuged at 105,000 g for 1 hour. The supernatant was loaded on a DEAE-Sephacel column (15×1.6 cm) pre-equilibrated with buffer B (buffer A without the saccharose, EGTA and protease inhibitors). The column was washed until there was no detectable absorption at 280 nm, then eluted with a linear gradient of NaCl (0-0.5 M) in buffer B. 3-ml fractions were collected and enzyme activity was determined under the conditions described hereinbelow to localize the different enzymes PDE1, PDE3, PDE4 and PDE5 which were aliquoted and frozen at −80° C. (Lugnier et al., Biochem. Phamacol., 1986, 35: 1746-1751). PDE2 was isolated from human platelets, provided by Etablissement Français du Sang-Alsace, according to Kameni Tcheudji J F et al., (J. Mol. Biol. 2001; 310: 181-791), and stored until use at −80° C. in small aliquots.
Cyclic nucleotide phosphodiesterase activity was determined by a radioenzymatic method using tritium-labelled cyclic GMP or AMP (1 μM) as substrate (Lugnier et al., 1986). ^3H-labelled adenosine or guanosine monophosphate formed by hydrolysis of the radiolabelled cyclic nucleotide was then converted to ^3H-labelled adenosine or guanosine in a second reaction with […] in excess. The nucleoside formed was separated from the nucleotides by anion exchange chromatography. Nucleoside radioactivity was determined by liquid scintillation counting. Enzymatic incubations were carried out under conditions allowing no more than 15% hydrolysis of the substrate; each point was performed in duplicate.
as §3

Structure (SMILES): COc1cc2c(c(OC)c1-c1ccccc1)C(c1cccc(C(N)=O)c1)=NCC(=O)N2C [Compound 17, 3-(6,8-Dimethoxy-1-methyl-2-oxo-7-phenyl-2,3-dihydro-1H-benzo[e][1,4]diazepin-5-yl)-benzamide]
- PDE1 percentage inhibition at 10 μM (PDE1; 10 μM compound): 22%
- IC50 (PDE1; value in square brackets): 37 µM
- inhibition at 10 µM (sigma 2 receptors): 93%
- Response to (+)SKF-10,047 (1.0 10^−4 M) in the presence of the compound (σ receptors; compound 1.0 10^−5 M): +169%
- Response to (+)SKF-10,047 (1.0 10^−4 M) in the presence of the compound (σ receptors; compound 1.0 10^−6 M): +139%
- Response to (+)SKF-10,047 (1.0 10^−4 M) in the presence of the compound (σ receptors; compound 3.0 10^−6 M): +139%
- inhibition at 10 µM (PDE5; 10 μM compound, read-out: PDE5 percentage inhibition at 10 μM): 22%
- IC50 (PDE5; value in square brackets): 42 µM
- PDE4 percentage inhibition at 10 μM (PDE4; 10 μM compound): 23%
- IC50 (PDE4; value in square brackets): 47 µM

— patent publication US20090215752A1, “Compounds, preparation and therapeutic use thereof” (priority 2005, published 2009)
